Data as given in patent US12371424B2, “Processes for the preparation of furazanobenzimidazoles and crystalline forms thereof” (Glioblastoma Foundation, Inc., priority 2017, dated 2025).

Tests used:
[1] = Dynamic vapor sorption (DVS) moisture sorption isotherm; assay type: physicochemical; conditions: for water absorption up to 85% RH / water absorption up to 95% RH: DVS, ca. 25° C.
Procedure: Differences in hygroscopicity of the various forms of a solid material provided a measure of their relative stability at increasing relative humidity. Moisture sorption isotherms were obtained using a DVS-1 system from Surface Measurement Systems (London, UK). The relative humidity was varied during sorption-desorption (see specific experiment) at a constant temperature of ca. 25° C. At the end of the DVS experiment the sample was measured by XRPD.
The dynamic vapor sorption (DVS) analysis for the crystalline Form E of the dichloride salt of the compound of formula I is depicted in FIG. 11.
See Example 5f for experimental details. The DVS analysis for the crystalline System A+M of the dichloride salt of the compound of formula I is depicted in FIG. 35.

[2] = Polymorphic stability (XRPD, climate chamber storage)
Procedure: XRPD patterns were obtained using a high-throughput XRPD set-up. The plates were mounted on a Bruker GADDS diffractometer equipped with a Hi-Star area detector. The XRPD platform was calibrated using Silver Behenate for the long d-spacings and Corundum for the short d-spacings. Data collection was carried out at room temperature using monochromatic CuKo radiation in the 20 region between 1.5° and 41.5°, which is the most distinctive part of the XRPD pattern. The diffraction pattern of each well was collected in two 20 ranges (1.5° 20≤21.5° for the first frame, and 19.5°% 20≤41.5° for the second) with an exposure time of 90 s for each frame. No background subtraction or curve smoothing was applied to the XRPD patterns. The carrier material used during XRPD analysis was transparent to X-rays and contributed only slightly to the background.
For variable humidity (VH) and variable temperature (VT) experiments a ANSYCO HT chamber was used, installed within a D8 Advance system diffractometer (Bruker) designed with Bragg-Brentano geometry and equipped with LynxEye solid state detector. The radiation used for collecting the data was CuKαl (2=1.54056 Å) monochromatized by germanium crystal. The material was placed on a fixed sample holder that was mounted inside the chamber.
VH-XRPD: The humidity was applied locally and varied from 10 to 70% (dew point). […]

[3] = Thermodynamic pH-dependent solubility; conditions: room temperature, 24 h
Procedure: The thermodynamic pH-dependent solubility was performed in unbuffered water as well as using standard Merck Titriplex® buffers (Merck Titrisol® buffer pH 3 with citrate and HCl; Merck Titrisol® buffer pH 4 with citrate and HCl; Merck Titrisol® buffer pH 5 with citrate and NaOH; Merck Titrisol® buffer pH 6 with citrate and NaOH; Merck Titrisol® buffer pH 7 with phosphate; for buffering at pH 4.5 a 50/50 mixture of buffers for pH 4 and 5 was used; for buffering at pH 5.5 a 50/50 mixture of buffers for pH 5 and 6 was used).
For each experiment, an 8 mL screw cap vial was prepared with the polymorphic material, the buffer solvent according to the target pH and a magnetic stirring bar. Each pH data point was determined in triplicate with a target pH of 3, 4, 4.5, 5, 5.5 and 7. The pH was measured (Fisherbrand pH meter Hydrus 400, a three point calibration was performed prior to measurement) and adjusted with 1M NaOH solution. […] After 24 h the pH was monitored and the slurries were centrifuged for 10 min at 3000 rpm to separate the solids and liquids and filtered (0.45 micron disk filter). […] Concentrations of the compound of formula I were determined by High Performance Liquid Chromatography with Diode Array Detection analysis (HPLC-DAD). […]
HPLC testing was performed on Agilent 1100 with DAD detector at 280 nm wavelength. A LOQ of 11 μg/mL was determined, linearity is given up to ca. 0.7 mg/mL. […]

| SMILES | hysteresis in DVS ([1]; isothermic (24.9° C.) DVS, 0→95→0% RH) | maximum mass change ([1]; isothermic (24.9° C.) DVS, 0→95→0% RH in steps of 10% RH, at 95% RH) | polymorphic stability (in words) ([2]; listed as System A+X) | water absorption up to 85% RH [1] | water absorption up to 95% RH [1] | solubility (in words) [3] | polymorphic form after 2 days at 40° C./75% RH ([2]; wet solid treated 2 days at 40° C./75% RH) |
| --- | --- | --- | --- | --- | --- | --- | --- |
| N#CCCNc1nonc1-c1nc2ccccc2n1CC(=O)c1ccc(NC(=O)[C@@H](N)CCCCN)cc1 [Mixture A1+M4] | No hysteresis was observed | 34% |  |  |  |  |  |
| N#CCCNc1nonc1-c1nc2ccccc2n1CC(=O)c1ccc(NC(=O)[C@@H](N)CCCCN)cc1 [System A+M] |  |  | polymorphically stable | ca. 22% | < 34% | good solubility |  |
| N#CCCNc1nonc1-c1nc2ccccc2n1CC(=O)c1ccc(NC(=O)[C@@H](N)CCCCN)cc1 [Form E] |  |  |  | 1% | ca. 4% |  | Form E |
